From patent US20060079696A1, “Substituted compounds derived from N-(benzyl)phenylacetamide, preparation and uses” (GENFIT, priority 2004, published 2006)

Key:
[1] = biological target: T1, hPPARγ (Homo sapiens, UniProt P37231); assay: Gal4-hPPARγ chimera transactivation in COS-7 cells (luciferase); assay type: cell-based; settings: induction factor standardised to an internal reference, read-out: % hGal4-PPAR transactivation (10 μM) gamma
T1 construct: fragments of DNA amplified by PCR corresponding to the DEF domains of the human PPARα, PPARγ PPARδ nuclear receptors; expressed in transfected cells; host or cells: COS-7 (monkey kidney fibroblast line)
T1 sequence (P37231 238-503 limits assumed): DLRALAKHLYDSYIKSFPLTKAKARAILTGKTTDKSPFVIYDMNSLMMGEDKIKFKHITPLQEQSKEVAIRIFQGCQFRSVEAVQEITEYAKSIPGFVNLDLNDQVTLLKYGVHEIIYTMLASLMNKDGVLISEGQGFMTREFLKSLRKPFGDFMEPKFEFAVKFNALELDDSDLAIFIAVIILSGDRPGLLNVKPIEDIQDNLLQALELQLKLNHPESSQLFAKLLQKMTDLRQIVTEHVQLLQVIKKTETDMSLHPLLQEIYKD
Method: (§1) The PPAR activation was evaluated in vitro on a monkey kidney fibroblast line (COS-7) by measuring the transcriptional activity of chimeras constituted of the DNA binding domain of the Gal4 transcription factor of yeast and of the binding domain to the ligand of the different PPARs. The compounds were tested at doses between 0.01 and 100 μM on Gal4-PPARα, γ, δ chimeras. The induction factor (ratio between the luminescence induced by the compound and the luminescence induced by the control) was measured for each condition: the higher this factor, the more the compound has PPAR-activating properties.
(§2) The COS-7 cells from ATCC were cultivated in a DMEM medium supplemented with 10% (vol/vol) of foetal calf serum, 100 U/ml penicillin (Gibco, Paisley, UK) and 2 mM L-Glutamine (Gibco, Paisley, UK). The cells were incubated at 37° C. in a humid atmosphere containing 5% CO2.
(§3) The Gal4(RE)_TkpGL3, pGal4-hPPARα, pGal4-hPPARγ, pGal4-hPPARδ and pGal4-φ plasmids have been described in the literature (Raspe, Madsen et al. 1999). The pGal4-hPPARα, pGal4-hPPARγ and pGal4-hPPARδ constructs were obtained by cloning in the pGal4-φ vector of fragments of DNA amplified by PCR corresponding to the DEF domains of the human PPARα, PPARγ PPARδ nuclear receptors.
(§4) COS-7 cells were plated in 96 wells plates (5×10^4 cells/well) and transfected, in the presence of 10% foetal calf serum and 150 ng DNA per well, with a pGal4-PPAR/Gal4(RE)_TkpGL3 ratio of 1/10. The cells were then incubated for 24 hours with the compounds to be tested, without serum. At the end of the experiment, the cells were lysed and the luciferase activities were determined by means of Steady Glow Luciferase (Promega) according to the supplier's recommendations.
(§5) The inventive compounds were tested at 10 μM on the 3 PPAR isoforms. The results obtained are detailed in table (1). The transactivation measured is expressed as a response ratio versus an internal reference for each of the isoforms.
(§6) The compounds were tested at 10 μM on the Gal4-PPARα, γ, δ chimeras. The induction factor, i.e. the ratio between the luminescence induced by the compound and the luminescence induced by the control, was measured for each condition. It was then standardised in comparison to an internal reference and the results were then expressed in percentages : the higher the activation percentage, the more the compound has PPAR-activating properties.

[2] = biological target: T2, ATP-dependent potassium channels (K+ATP) (Rattus norvegicus, UniProt Q09429); assay: [3H]glibenclamide binding to ATP-dependent potassium channels of rat cerebral cortex; settings: for inhibition at 0.3 µM: 1 h, 300 nM, specific displacement of [3H]glibenclamide 0.1 nM, read-out: KATP binding (300 nM)
T2 construct: the potassium channels derive from a rat's cerebral cortex; tissue CEREP; host or cells: rat cerebral cortex
Method: The results shown reflect the specific affinity of the inventive compounds on the ATP-dependent (K^+ATP) potassium channels. The specific binding measured corresponds to the difference between the total binding and the non-specific binding determined in the presence of an excess of non-marked reference ligand (glibenclamide 1 μM). The inventive compounds were tested at doses between 3 and 300 nM: the higher the percentage measured, the stronger the affinity of the compound for the ATP-dependent potassium channels.
The binding test was carried out at CEREP (Celle L'Evescault, France (86)) according to a protocol inspired by Angel et al. (Angel and Bidet 1991): the potassium channels derive from a rat's cerebral cortex and the reference compound is [^3H]glibenclamide at 0.1 nM. The protocol consists of incubation at 22° C. for one hour.

[3] = biological target: T3, hPPARα (Homo sapiens, UniProt Q07869); assay: Gal4-hPPARα chimera transactivation in COS-7 cells (luciferase); assay type: cell-based; settings: induction factor standardised to an internal reference, read-out: % hGal4-PPAR transactivation (10 μM) alpha
T3 construct: fragments of DNA amplified by PCR corresponding to the DEF domains of the human PPARα, PPARγ PPARδ nuclear receptors; expressed in transfected cells; host or cells: COS-7 (monkey kidney fibroblast line)
T3 sequence (Q07869 239-466 limits assumed): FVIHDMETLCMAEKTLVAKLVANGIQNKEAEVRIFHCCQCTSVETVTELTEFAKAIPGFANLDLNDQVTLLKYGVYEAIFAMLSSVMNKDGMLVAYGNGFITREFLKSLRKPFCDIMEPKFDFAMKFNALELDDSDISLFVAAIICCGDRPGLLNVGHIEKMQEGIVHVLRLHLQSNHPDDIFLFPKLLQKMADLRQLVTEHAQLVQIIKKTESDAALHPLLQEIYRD
Method: as §1, §2, §3, §4, §5, §6

[4] = biological target: T4, hPPARδ (Homo sapiens, UniProt Q03181); assay: Gal4-hPPARδ chimera transactivation in COS-7 cells (luciferase); assay type: cell-based; settings: induction factor standardised to an internal reference, read-out: % hGal4-PPAR transactivation (10 μM) delta
T4 construct: fragments of DNA amplified by PCR corresponding to the DEF domains of the human PPARα, PPARγ PPARδ nuclear receptors; expressed in transfected cells; host or cells: COS-7 (monkey kidney fibroblast line)
T4 sequence (Q03181 211-439 limits assumed): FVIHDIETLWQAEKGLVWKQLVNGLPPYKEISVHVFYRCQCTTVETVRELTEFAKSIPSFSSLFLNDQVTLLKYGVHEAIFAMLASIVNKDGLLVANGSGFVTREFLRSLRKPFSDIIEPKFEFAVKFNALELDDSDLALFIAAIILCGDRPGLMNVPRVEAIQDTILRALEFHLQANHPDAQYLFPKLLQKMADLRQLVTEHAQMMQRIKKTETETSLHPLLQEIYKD
Method: as §1, §2, §3, §4, §5, §6

T2 sequence (Q09429 whole entry): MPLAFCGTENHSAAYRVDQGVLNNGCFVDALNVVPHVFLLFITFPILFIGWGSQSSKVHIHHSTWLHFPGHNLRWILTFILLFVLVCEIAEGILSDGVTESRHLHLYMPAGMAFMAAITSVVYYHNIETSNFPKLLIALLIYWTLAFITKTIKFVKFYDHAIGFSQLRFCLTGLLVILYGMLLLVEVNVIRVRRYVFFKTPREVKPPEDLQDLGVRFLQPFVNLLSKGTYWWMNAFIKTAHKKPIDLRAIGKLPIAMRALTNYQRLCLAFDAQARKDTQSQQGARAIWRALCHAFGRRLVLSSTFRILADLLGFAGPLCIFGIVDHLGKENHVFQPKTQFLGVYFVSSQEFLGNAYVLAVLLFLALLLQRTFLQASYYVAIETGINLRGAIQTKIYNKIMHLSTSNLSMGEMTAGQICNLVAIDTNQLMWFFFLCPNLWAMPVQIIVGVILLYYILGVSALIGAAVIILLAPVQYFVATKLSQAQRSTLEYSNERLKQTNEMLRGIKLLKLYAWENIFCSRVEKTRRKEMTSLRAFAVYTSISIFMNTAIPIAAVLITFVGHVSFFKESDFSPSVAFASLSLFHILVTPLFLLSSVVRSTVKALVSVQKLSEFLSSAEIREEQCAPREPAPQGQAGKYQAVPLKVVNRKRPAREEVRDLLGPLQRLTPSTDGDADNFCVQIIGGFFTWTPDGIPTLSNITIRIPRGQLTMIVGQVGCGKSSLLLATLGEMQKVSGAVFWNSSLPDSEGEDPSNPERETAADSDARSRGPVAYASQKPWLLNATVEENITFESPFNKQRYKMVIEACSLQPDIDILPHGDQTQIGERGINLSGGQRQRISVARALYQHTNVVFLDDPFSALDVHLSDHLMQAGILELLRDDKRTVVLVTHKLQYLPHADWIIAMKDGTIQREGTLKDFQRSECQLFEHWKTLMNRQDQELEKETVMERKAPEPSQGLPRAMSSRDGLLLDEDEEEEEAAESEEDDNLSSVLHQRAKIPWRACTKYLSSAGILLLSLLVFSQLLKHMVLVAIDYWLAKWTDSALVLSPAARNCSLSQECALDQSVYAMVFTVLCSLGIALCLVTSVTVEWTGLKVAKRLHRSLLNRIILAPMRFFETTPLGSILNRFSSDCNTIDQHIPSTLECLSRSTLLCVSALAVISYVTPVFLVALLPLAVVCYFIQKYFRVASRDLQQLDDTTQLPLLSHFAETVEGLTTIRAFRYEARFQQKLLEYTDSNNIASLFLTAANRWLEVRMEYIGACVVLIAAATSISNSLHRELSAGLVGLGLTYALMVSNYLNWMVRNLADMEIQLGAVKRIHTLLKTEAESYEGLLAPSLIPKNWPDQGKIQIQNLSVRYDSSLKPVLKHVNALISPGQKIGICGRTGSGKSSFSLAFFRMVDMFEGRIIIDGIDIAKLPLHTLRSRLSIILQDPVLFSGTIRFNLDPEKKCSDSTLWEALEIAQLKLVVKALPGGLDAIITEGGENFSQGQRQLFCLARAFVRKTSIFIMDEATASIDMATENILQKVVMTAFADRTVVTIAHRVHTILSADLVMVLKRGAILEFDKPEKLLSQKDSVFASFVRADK
T2 sequence (P70673 whole entry partner): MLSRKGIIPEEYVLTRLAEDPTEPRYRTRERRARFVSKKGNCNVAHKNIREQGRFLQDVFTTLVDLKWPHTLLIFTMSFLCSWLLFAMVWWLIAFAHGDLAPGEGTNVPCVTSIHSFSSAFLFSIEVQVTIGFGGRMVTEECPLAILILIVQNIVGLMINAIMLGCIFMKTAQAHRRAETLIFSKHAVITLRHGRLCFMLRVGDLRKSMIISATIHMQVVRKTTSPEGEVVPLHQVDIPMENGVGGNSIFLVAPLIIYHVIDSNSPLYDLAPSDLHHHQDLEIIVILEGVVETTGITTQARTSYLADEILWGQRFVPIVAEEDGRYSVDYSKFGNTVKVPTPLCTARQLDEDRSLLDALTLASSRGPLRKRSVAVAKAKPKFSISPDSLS

SMILES	activation at 10 µM [1] [%]	inhibition at 0.3 µM [2] [%]	activation at 10 µM [3] [%]	activation at 10 µM [4] [%]	IC50 ([2]; FIG. 2) [nM]
CC(C)CC(NC(=O)Cc1ccc(OCCCCC(C)(C)C(=O)O)cc1)c1ccccc1N1CCCCC1 (stereo not drawn) [Compound 57, 6-[4-[1-(3-methyl-1-(2-(1-piperidinyl)phenyl)butyl)aminocarbonylmethyl]phenoxy]-2,2-dimethylhexanoic acid]	< 10	18	29	< 10	–
CCCCC(NC(=O)Cc1ccc(OC(C)(C)C(=O)O)cc1)c1cccc(F)c1N1CCCCC1 (stereo not drawn) [Compound 45, 2-[4-[1-(1-(3-fluoro-2-(1-piperidinyl)phenyl)pentyl)aminocarbonylmethyl]phenoxy]-2-methylpropanoic acid]	62	66	31	< 10	–
CCCCC(NC(=O)Cc1ccc(OC(C)(C)C(=O)O)cc1)c1ccc(Br)cc1N1CCCCC1 (stereo not drawn) [Compound 33, 2-[4-[1-(1-(2-(1-piperidinyl)-4-(bromo)phenyl)pentyl)aminocarbonylmethyl]phenoxy]-2-methylpropanoic acid]	42	51	< 10	23	–
CC(C)CC(NC(=O)Cc1ccc(OC(C)(C)C(=O)O)cc1)c1ccc(C(F)(F)F)cc1N1CCCCC1 (stereo not drawn) [Compound 21, 2-[4-[1-(3-methyl-1-(2-(1-piperidinyl)-4-(trifluoromethyl)phenyl)butyl)aminocarbonylmethyl]phenoxy]-2-methylpropanoic acid]	25	68	< 10	24	–
CC(C)CC(NC(=O)Cc1ccc(OCCCC(C)(C)C(=O)O)cc1)c1ccccc1N1CCCCC1 (stereo not drawn) [Compound 28, 5-[4-[1-(3-methyl-1-(2-(1-piperidinyl)phenyl)butyl)aminocarbonylmethyl]phenoxy]-2,2-dimethylpentanoic acid]	17	30	35	< 10	–
CC(C)CC(NC(=O)C(C)c1ccc(OC(C)(C)C(=O)O)cc1)c1ccccc1N1CCCCC1 (stereo not drawn) [Compound 34, 2-[4-[1-methyl-1-[1-(3-methyl-1-(2-(1-piperidinyl)phenyl)butyl)aminocarbonyl]methyl]phenoxy]-2-methylpropanoic acid]	30	81	< 10	< 10	–
CCCCC(NC(=O)Cc1ccccc1OCCCC(C)(C)C(=O)O)c1ccccc1N1CCCCC1 (stereo not drawn) [Compound 53, 5-[2-[1-(1-(2-(1-piperidinyl)phenyl)pentyl)aminocarbonylmethyl]phenoxy]-2,2-dimethylpentanoic acid]	40	25	< 10	< 10	–
CCCCC(NC(=O)Cc1ccc(OC(C)(C)C(=O)O)cc1)c1ccccc1OC (stereo not drawn) [Compound 54, 2-[4-[1-(1-(2-(methoxy)phenyl)pentyl)aminocarbonylmethyl]phenoxy]-2-methylpropanoic acid]	30	79	< 10	< 10	–

Further lines, results first:

activation at 10 µM [1] [%]	inhibition at 0.3 µM [2] [%]	activation at 10 µM [3] [%]	activation at 10 µM [4] [%]	IC50 ([2]; FIG. 2) [nM]	SMILES
< 10	73	22	< 10	–	CC(C)CC(NC(=O)Cc1ccc(OC(C)(C)C(=O)NS(=O)(=O)C(F)(F)F)cc1)c1ccccc1N1CCCCC1 (stereo not drawn) [Compound 59, N-[trifluoromethylsulfonyl]-2-[4-[1-(3-methyl-1-(2-(1-piperidinyl)phenyl)butyl)aminocarbonylmethyl]phenoxy]-2-methylpropanamide]
< 10	67	26	< 10	–	CCCCC(NC(=O)Cc1ccc(OC(C)(C)C(=O)NS(=O)(=O)Cc2ccccc2)cc1)c1ccccc1N1CCCCC1 (stereo not drawn) [Compound 63, N-[benzylsulfonyl]-2-[4-[1-(1-(2-(1-piperidinyl)phenyl)pentyl)aminocarbonylmethyl]phenoxy]-2-methylpropanamide]
33	27	< 10	< 10	–	Cc1cccc(CC(NC(=O)Cc2ccc(OC(C)(C)C(=O)O)cc2)c2ccccc2N2CCCCC2)c1 (stereo not drawn) [Compound 55, 2-[4-[1-(2-(3-methylphenyl)-1-(2-(1-piperidinyl)phenyl)ethyl)aminocarbonylmethyl]phenoxy]-2-methylpropanoic acid]
< 10	23	20	< 10	–	CCCCC(NC(=O)Cc1ccc(OC(C)(C)C(=O)NS(=O)(=O)c2ccccc2)cc1)c1ccccc1N1CCCCC1 (stereo not drawn) [Compound 61, N-[phenylsulfonyl]-2-[4-[1-(1-(2-(1-piperidinyl)phenyl)pentyl)aminocarbonylmethyl]phenoxy]-2-methylpropanamide]
18	57	< 10	< 10	–	CC(C)CC(NC(=O)Cc1ccc(OC(C)(C)C(=O)NS(=O)(=O)c2ccccc2)cc1)c1ccccc1N1CCCCC1 (stereo not drawn) [Compound 64, N-[phenylsulfonyl]-2-[4-[1-(3-methyl-1-(2-(1-piperidinyl)phenyl)butyl)aminocarbonylmethyl]phenoxy]-2-methylpropanamide]
49	–	11	< 10	63	CCCCC(NC(=O)Cc1ccc(OC(C)(C)C(=O)O)cc1)c1ccccc1N1CCCCC1 (stereo not drawn) [Compound 10, 2-[4-[1-(1-(2-(1-piperidinyl)phenyl)pentyl)aminocarbonylmethyl]phenoxy]-2-methylpropanoic acid]
34	71	40	< 10	–	CC(C)(Oc1ccc(CC(=O)NC(Cc2ccccc2)c2ccccc2N2CCCCC2)cc1)C(=O)O (stereo not drawn) [Compound 7, 2-[4-[1-(2-phenyl-1-(2-(1-piperidinyl)phenyl)ethyl)aminocarbonylmethyl]phenoxy]-2-methylpropanoic acid]
